Reference: publication PMC9149120 (Cell, 2022)
Peptide text beside a SMILES is read from it. * marks the point of attachment. Cbz = O=C(OCc1ccccc1)*; CH2F = FC*

Assays:
[1] = tested on: PC-3 prostate cancer cells; assay: Tumor cell viability alone or with alantolactone; type: cell-based; details: 0.5–8 μM combined with 10 μM ATL, 72 h, n = 3; Figure S5D
[2] = tested on: human cortical neurons; assay: Human α-syn PFF-induced cell death, Hoechst/PI staining; type: cell-based; details: 0.5 or 1 μM, pre-incubated 1 h, human α-syn PFF 14 days, n = 4; Figure 3G
[3] = tested on: HT 22 cells; assay: TNF-α and Z-VAD-induced necroptosis, Alamar blue; type: cell-based; details: 1 ng/mL TNF-α with 50 μM z-VAD, n = 3; Figure S4G
[4] = tested on: cortical neurons; assay: Nuclear translocation of AIF and PAAN/MIF after α-syn PFF; type: cell-based, mouse; details: n = 3
[5] = tested on: SH-SY5Y cells; assay: Staurosporine; type: cell-based; details: 0.5 μM STS, n = 3; Figure S4F
[6] = tested on: primary cortical neurons; assay: α-syn PFF-induced PARP activation; type: cell-based, mouse; details: AP5 50 μM or NBQX 10 μM pre-incubated 1 h, α-syn PFF 3 days, n = 3; Figure S3A
[7] = tested on: SH-SY5Y cells; assay: MNNG-induced parthanatic cell death, Alamar blue viability; type: cell-based; details: for inhibition of MNNG-induced parthanatic cell death: 0.5 or 1 μM, 50 μM MNNG 15 min, n = 4, Figure S5I; for inhibition of parthanatic cell death by MIF tautomerase inhibitors: 10 μM p-425, 50 μM ISO-1, 10 μM AV411, 50 μM MNNG 15 min, n = 5, Figure 4J
[8] = target: T1, PAAN/MIF nuclease (Homo sapiens, UniProt P14174); assay: In vitro PAAN/MIF nuclease assay; type: biochemical; details: for inhibition of PAAN/MIF nuclease activity: PS30 substrate, indicated doses, n = 4, Figure 4H; for inhibition of the nuclease activity of PAAN/MIF by MIF tautomerase inhibitors: 10 μM p-425, 50 μM ISO-1, 10 μM AV411, n = 5, Figure 4I
T1 sequence (P14174 1-115): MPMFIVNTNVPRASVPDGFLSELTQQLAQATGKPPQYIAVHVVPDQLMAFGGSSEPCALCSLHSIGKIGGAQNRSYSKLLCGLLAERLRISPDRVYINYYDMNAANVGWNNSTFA

Q: C[C@]1(c2nc3c(C(N)=O)cccc3[nH]2)CCCN1 [ABT-888] was tested. Which “tumor toxicity induced by alantolactone (ATL)” value [1] did it give?
A: enhancement of tumor toxicity

Q: And the “protection against cell death” value [2]?
A: protected against cell death

Q: And the “prevention of TNF-α and Z-VAD-induced necroptosis” value [3]?
A: not prevented

Q: What about the “α-syn PFF-induced nuclear translocation of PAAN/MIF and AIF” value ([4]; ABT-888 1 μM, Figure 2A) of the same molecule?
A: attenuated

Q: And the “inhibition of staurosporine (STS)-induced apoptotic cell death” value [5]?
A: did not inhibit

Q: Which “α-syn PFF-induced PARP activation” value [6] does the source give for NC(CCCP(=O)(O)O)C(=O)O (centres unmarked) [AP5] here?
A: inhibited

Q: And the “nuclear translocation of AIF and MIF” value ([4]; AP5 50 μM or NBQX 10 μM pretreatment, Figure S3B)?
A: attenuated

Q: What does the source list for C=CC[C@@H]1/C=C(\C)C[C@H](C)C[C@H](OC)[C@H]2O[C@@](O)(C(=O)C(=O)N3CCCC[C@H]3C(=O)O[C@H](/C(C)=C/[C@@H]3CC[C@@H](O)[C@H](OC)C3)[C@H](C)[C@@H](O)CC1=O)[C@H](C)C[C@@H]2OC [FK506]?
A: inhibition of MNNG-induced parthanatic cell death [7]: failed to inhibit; inhibition of PAAN/MIF nuclease activity [8]: failed to inhibit

Q: With COC(=O)CC1CC(c2ccc(O)cc2)=NO1 (centres unmarked) [ISO-1] as the molecule, how does the “inhibition of parthanatic cell death by MIF tautomerase inhibitors” value [7] read?
A: failed to inhibit

Q: And the “inhibition of the nuclease activity of PAAN/MIF by MIF tautomerase inhibitors” value [8]?
A: failed to inhibit

Q: CC(C)C(=O)c1c(C(C)C)nn2ccccc12 [Ibudilast] was tested. Which “inhibition of parthanatic cell death by MIF tautomerase inhibitors” value [7] did it give?
A: failed to inhibit

Q: And the “inhibition of the nuclease activity of PAAN/MIF by MIF tautomerase inhibitors” value [8]?
A: failed to inhibit

Q: With CN1C(=O)C(Cc2c[nH]c3ccccc23)NC1=S (centres unmarked) [Nec-1] as the molecule, how does the “prevention of TNF-α and Z-VAD-induced necroptosis” value [3] read?
A: prevented necroptosis

Q: With COC(=O)C[C@H](NC(=O)[C@H](C)NC(=O)[C@@H](NC(=O)OCc1ccccc1)C(C)C)C(=O)CF [Z-VAD] (Cbz-Val-Ala-Asp(OMe)-CH2F) as the molecule, how does the “inhibition of staurosporine (STS)-induced apoptotic cell death” value [5] read?
A: prevented

Q: How did the “inhibition of MNNG-induced parthanatic cell death” value [7] turn out when CO[C@H]1C[C@@H]2CC[C@@H](C)[C@@](O)(O2)C(=O)C(=O)N2CCCC[C@H]2C(=O)O[C@H]([C@H](C)C[C@@H]2CC[C@@H](O)[C@H](OC)C2)CC(=O)[C@H](C)/C=C(\C)[C@@H](O)[C@@H](OC)C(=O)[C@H](C)C[C@H](C)/C=C/C=C/C=C/1C [rapamycin] was run?
A: failed to inhibit

Q: What about the “inhibition of PAAN/MIF nuclease activity” value [8] of the same molecule?
A: failed to inhibit
